What all share (assay): NCI tumour cell line growth inhibition, 48 h
Experiment [1] deals with A549 NSCLC.
Experiment [2] concerns BT-549 breast.
Experiment [3] deals with EKVX NSCLC.
Experiment [4] has as its system HCT-15 colon.
The subject of experiment [5] is K-562 leukemia.
The subject of experiment [6] is M14 melanoma.
Experiment [7] relates to OVCAR-5 ovarian.
Experiment [8] concerns SF-295 CNS.
For experiment [9], the system named is SN12C renal.
In experiment [10] the test system is SR leukemia.
In experiment [11] the test system is HL-60(TB) leukemia.

SMILES strings stand for the structures.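 1) Cells in 96-well plates. 2) Compound, 48 h, 5 concentrations. 3) Linear interpolation between surrounding doses. 4) Unreached endpoint = highest concentration. Abbreviation: GI50, concentration required for 50% inhibition of growth. TGI is the concentration that stops growth completely.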 Where only a bound is given, the exact number is not on record here.

For twelve compounds, TGI and GI50 results are on record in PubChem BioAssay (NCI).

For `CC1=C/C(=N/N2C(=O)/C(=C/c3ccc(Cl)cc3)N=C2c2ccccc2)CC(C)(C)C1`, the TGI in experiment [1], in [2], in experiment [3], in [4], in experiment [5] and in [6] was over 100 µM each time. The TGI in [7], in experiment [8], in [9] and in experiment [10] was over 100 µM in each case.
For the compound `O=c1c2cc(Br)ccc2oc2nc3n(c(=O)c12)CCCS3`, the TGI in experiment [1], in experiment [2], in experiment [3], in experiment [4], in experiment [5] and in experiment [6] was over 100 µM in each case. The TGI in experiment [7], in experiment [8], in experiment [9] and in [10] was over 100 µM throughout.
With `C=C1CC/C=C(/C(=O)O)CC[C@H]2[C@@H]1CC2(C)C`, the TGI in experiment [1], in [2], in [3], in [4], in experiment [11] and in [5] was over 100 µM in each case. In addition, the TGI in [6], in experiment [7], in [8] and in [9] was over 100 µM throughout.
For the compound `CC(C)CCCC(C)[C@H]1CC[C@H]2[C@@H]3CC[C@H]4C[C@@H](CCC=C(c5cc(Cl)c(O)c(C(=O)OC(C)(C)C)c5)c5cc(Cl)c(O)c(C(=O)OC(C)(C)C)c5)CC[C@]4(C)[C@H]3CC[C@]12C` (some centres undefined), the TGI in experiment [1], in experiment [2], in experiment [3], in [4], in experiment [11] and in experiment [5] was over 50 µM in each case. The TGI in experiment [6], in experiment [7], in experiment [8] and in [9] was over 50 µM throughout.
For `COc1cc(/C=C2\N=C(c3ccccc3)N(C3Nc4cc5c(cc4S3)NC(N3C(=O)/C(=C/c4cc(OC)c(OC)c(OC)c4)N=C3c3ccccc3)S5)C2=O)cc(OC)c1OC` (centres undefined), the TGI in experiment [1], in experiment [2], in experiment [3], in experiment [4], in experiment [11] and in [5] was over 100 µM throughout. For the same compound, the TGI in experiment [6], in experiment [7], in experiment [8] and in experiment [10] was over 100 µM throughout.
In the case of `CN1CCN(CC(=O)Nc2ccc3ncnc(Nc4ccc(Oc5cccc(C(F)(F)F)c5)c(Cl)c4)c3c2)CC1`, the GI50 in experiment [2] is 1.47 µM; in experiment [3] it was 1.32 µM; in experiment [4], 1.2 µM; in experiment [7], 1.58 µM; in experiment [8], 1.81 µM; in [9], 1.7 µM. In addition, the GI50 in experiment [10] was 0.371 µM. Further, the TGI in experiment [2] is 2.85 µM; in experiment [3] it was 2.7 µM; in [4], 2.52 µM; in experiment [7], 2.98 µM; in experiment [8], 3.31 µM; in experiment [9] it was 3.26 µM. The compound also had a TGI in experiment [10] of 2.2 µM.
In the case of `c1ccc2nc3[nH]c4ccccc4c3cc2c1`, the TGI in experiment [1] was 9.14 µM; in experiment [2], 2.87 µM; in experiment [3], 4.8 µM; in experiment [4], 1.38 µM; in experiment [11], 0.726 µM; in experiment [5] it was over 100 µM. Besides, the TGI in experiment [6] was determined as 1.85 µM; in experiment [7], 20.4 µM; in experiment [8], 2.24 µM; in experiment [9], 3.34 µM.
As to `CCCCCCOc1ccc(NC2=C(Cl)C(=O)c3cccnc3C2=O)cc1`, the TGI is 4.25 µM in [1]; over 10 µM in experiment [2]; 3.22 µM in experiment [3]; 3.96 µM in experiment [4]; 3.78 µM in [11]; over 10 µM in experiment [5]. The TGI is 2.87 µM in [6], 5.01 µM in [7], over 10 µM in experiment [8] and 4.08 µM in experiment [9].
On to `CCC(=O)OCc1ccc2oc(=O)c(C(=O)Oc3cncc(Cl)c3)cc2c1`, for which the TGI is over 100 µM in experiment [1]; over 100 µM in [2]; over 100 µM in experiment [3]; over 100 µM in experiment [4]; 77.9 µM in [5]; over 100 µM in [6]. Besides, the TGI in experiment [7], in experiment [8], in experiment [9] and in experiment [10] was over 100 µM each time.
Regarding `COc1ccc(C(=O)N2CCN(c3ccc4c(c3)OCC(=O)N4)CC2)cc1`, the TGI in experiment [1], in experiment [2], in experiment [3], in experiment [4], in experiment [11] and in experiment [6] was over 100 µM each time. The TGI in experiment [7], in experiment [8], in experiment [9] and in experiment [10] was over 100 µM each time.
For `Cn1c(N2CCCC2)c(C=O)c(=O)n(C)c1=O`, the TGI in [1], in experiment [2], in experiment [3], in [4], in experiment [11] and in [5] was over 100 µM in each case. The TGI in [6], in experiment [7], in experiment [8] and in experiment [9] was over 100 µM throughout.
Regarding `O=C(O)Cc1ccc(N2N=C(c3ccccc3)CC2=O)cc1`, the TGI in experiment [2], in experiment [3], in experiment [4], in experiment [11], in experiment [5] and in experiment [6] was over 100 µM each time. The TGI in experiment [7], in [8], in experiment [9] and in experiment [10] was over 100 µM each time.
